Our source for the Emax and EC50 values is patent US12679878B2, “CRF2 receptor agonists and their use in therapy” (SANOFI, priority 2020, dated 2026).

Starred links: 1 amine or outer side, 2 acyl side, 3 side chain; linkers in the order of their positions; H or OH if unused. Non-standard residues stand in square brackets, D forms with d. Residues, ends and D or L forms follow the SMILES beside them. Groups on a side chain read outwards from the residue. *: point of attachment. C20 diacid = O=C(O)CCCCCCCCCCCCCCCCCCC(=O)*; C18 diacid = O=C(O)CCCCCCCCCCCCCCCCC(=O)*; γGlu = O=C(O)[C@H](CCC(=O)[*:2])N[*:1]; Palmitoyl = CCCCCCCCCCCCCCCC(=O)*; AEEA = NCCOCCOCC(=O)O; Aib = CC(C)(N)C(=O)O Where only a bound is given, the exact number is not on record here.

The target of one experiment is T1, CRF1R receptor (Homo sapiens, UniProt P34998).
T1 construct: host or cells: CHO-K1 clone 2
T1 sequence (P34998 24-415): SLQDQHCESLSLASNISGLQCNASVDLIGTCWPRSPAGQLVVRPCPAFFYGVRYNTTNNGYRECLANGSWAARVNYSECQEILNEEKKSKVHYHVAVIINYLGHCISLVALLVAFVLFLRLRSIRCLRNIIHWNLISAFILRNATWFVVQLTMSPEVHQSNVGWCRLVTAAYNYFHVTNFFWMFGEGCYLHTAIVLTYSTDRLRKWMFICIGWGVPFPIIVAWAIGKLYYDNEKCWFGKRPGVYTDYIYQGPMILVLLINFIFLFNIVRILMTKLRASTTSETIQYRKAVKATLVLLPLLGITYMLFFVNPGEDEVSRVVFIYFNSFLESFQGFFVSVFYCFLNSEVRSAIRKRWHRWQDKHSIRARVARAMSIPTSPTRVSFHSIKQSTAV
Put plainly: cAMP activity at anti-target CRF1R, CHO-K1 cell line clone 2 (Example 19.10). Format: cell-based. Particulars: CRF1R CHO-K1 clone 2; for Emax: 100% = Sauvagine at 100 nM; for EC50: 0% HSA, read-out: EC50 [nM] 0% HSA. The protocol:
The CRF1R-overexpression CHO-K1 cell line clone 2 was purchased from PerkinElmer.
Cells were grown in a 10 cm dish at 37° C./5% CO2 in medium (F12 (Hams)/10% FBS/400 μg/ml G418) to near confluence. At that stage, cells were harvested, resuspended to 10 million/mL in culture medium without G418 and with 10% DMSO. 1 mL vial aliquots were slowly frozen to -80° C. in isopropanol and then transferred in liquid nitrogen for storage. These vials were used to run the experiment following the procedure reported 10 in the previous paragraph, except for the compound used in the control well to define the 100% activation (Sauvagine at 100 nM)

Another experiment concerns the target T2, human CRF2α receptor (Homo sapiens, UniProt Q13324).
T2 construct: expressed in transfected cells; host or cells: TeloHEAC
T2 sequence (Q13324 1-411): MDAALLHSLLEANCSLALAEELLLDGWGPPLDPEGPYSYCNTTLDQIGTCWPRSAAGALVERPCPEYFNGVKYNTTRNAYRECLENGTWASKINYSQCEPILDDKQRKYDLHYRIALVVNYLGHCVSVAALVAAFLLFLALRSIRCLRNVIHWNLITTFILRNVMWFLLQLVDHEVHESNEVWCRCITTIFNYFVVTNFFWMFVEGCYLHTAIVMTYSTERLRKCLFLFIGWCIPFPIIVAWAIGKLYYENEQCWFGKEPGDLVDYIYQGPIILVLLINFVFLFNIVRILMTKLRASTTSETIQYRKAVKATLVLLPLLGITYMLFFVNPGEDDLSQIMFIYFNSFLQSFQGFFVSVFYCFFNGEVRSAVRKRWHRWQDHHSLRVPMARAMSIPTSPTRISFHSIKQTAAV
In words: cAMP agonism at human CRF2 α receptor in TeloHEAC cells (Example 7). Type of experiment: cell-based. Particulars: cAMP HTRF, TeloHEAC cells stably expressing human CRF2 α, 0% HSA; read-out: EC50 [nM], 0% HSA. A digest of the protocol: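 Cryopreserved cells are thawed, washed and resuspended in IBMX-containing (2 mM) HEPES-buffered HBSS with or without 0.1% HSA. Compound incubation runs 30 min at room temperature with 2000 cells per well, then cAMP is measured by time-resolved FRET. Potency is expressed as EC50, efficacy relative to urocortin 2 at 1000 nM.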
In general terms: In TR-FRET formats the signal depends on donor and acceptor labels being close together.

At CRF1R receptor, `CC[C@H](C)[C@H](N)C(=O)N[C@H](C(=O)N[C@@H](CC(C)C)C(=O)N[C@@H](CO)C(=O)N[C@@H](CC(C)C)C(=O)N[C@@H](CC(=O)O)C(=O)N[C@@H](C(=O)N1CCC[C@H]1C(=O)N[C@H](C(=O)N[C@@H](CCCCN)C(=O)N[C@@H](CC(C)C)C(=O)N[C@@H](CCCCNC(=O)COCCOCCNC(=O)COCCOCCNC(=O)CC[C@H](NC(=O)CCCCCCCCCCCCCCCCCCC(=O)O)C(=O)O)C(=O)N[C@@H](CCCCN)C(=O)N[C@@H](CCCCN)C(=O)N[C@@H](CC(C)C)C(=O)N[C@@H](CC(C)C)C(=O)N[C@@H](CCCCN)C(=O)N[C@@H](CCC(N)=O)C(=O)N[C@@H](CCC(=O)O)C(=O)N[C@@H](CCCNC(=N)N)C(=O)N[C@@H](CCCCN)C(=O)N[C@@H](CCCNC(=N)N)C(=O)NC(C)(C)C(=O)N[C@@H](CCC(=O)O)C(=O)N[C@@H](CCCNC(=N)N)C(=O)N[C@@H](CCC(=O)O)C(=O)N[C@@H](CCCCN)C(=O)N[C@@H](C)C(=O)N[C@@H](CCC(=O)O)C(=O)N[C@@H](CCCCN)C(=O)N[C@@H](C)C(=O)N[C@@H](C)C(=O)N[C@@H](CCCNC(=N)N)C(=O)N[C@H](C(=O)N[C@@H](CC(C)C)C(=O)N[C@@H](CCC(=O)O)C(=O)N[C@@H](CCCNC(=N)N)C(=O)N[C@H](C(N)=O)C(C)C)[C@@H](C)CC)[C@@H](C)O)C(C)C)C(C)C` [SEQ ID NO: 224, IVLSLDvPTKLK*KKLLKQERKRAibEREKAEKAARILERV-NH2] (H-IVLSLD[dV]PTKLK([AEEA-AEEA-γGlu-C20 diacid])KKLLKQERKR[Aib]EREKAEKAARILERV-NH2; N-terminus assumed) showed an Emax of 52.6%.

Turning to `CC[C@H](C)[C@H](N)C(=O)N[C@H](C(=O)N[C@@H](CC(C)C)C(=O)N[C@@H](CO)C(=O)N[C@@H](CC(C)C)C(=O)N[C@@H](CC(=O)O)C(=O)N[C@H](C(=O)N1CCC[C@H]1C(=O)N[C@H](C(=O)NCC(=O)N[C@@H](CC(C)C)C(=O)N[C@@H](CCCCNC(=O)COCCOCCNC(=O)COCCOCCNC(=O)CC[C@H](NC(=O)CCCCCCCCCCCCCCCCC(=O)O)C(=O)O)C(=O)N[C@@H](CCC(N)=O)C(=O)N[C@@H](CCCCN)C(=O)N[C@@H](CC(C)C)C(=O)N[C@@H](CC(C)C)C(=O)N[C@@H](CCCCN)C(=O)N[C@@H](CCC(N)=O)C(=O)N[C@@H](CCC(N)=O)C(=O)N[C@@H](CCCNC(=N)N)C(=O)N[C@@H](CCC(N)=O)C(=O)N[C@@H](CCCNC(=N)N)C(=O)N[C@@H](CCCCN)C(=O)N[C@@H](CCC(=O)O)C(=O)N[C@@H](CCCNC(=N)N)C(=O)N[C@@H](CCC(N)=O)C(=O)N[C@@H](CCC(N)=O)C(=O)N[C@@H](C)C(=O)N[C@@H](CCC(=O)O)C(=O)N[C@@H](CCCCN)C(=O)N[C@@H](CC(N)=O)C(=O)N[C@@H](C)C(=O)N[C@@H](CCCNC(=N)N)C(=O)N[C@H](C(=O)N[C@@H](CC(C)C)C(=O)N[C@@H](C)C(=O)N[C@@H](CCCNC(=N)N)C(=O)N[C@H](C(N)=O)C(C)C)[C@@H](C)CC)[C@@H](C)CC)C(C)C)C(C)C` [compound 16] (H-IVLSLDVPIGLK([AEEA-AEEA-γGlu-C18 diacid])QKLLKQQRQRKERQQAEKNARILARV-NH2), at CRF1R receptor, the Emax is 0.4%.

For `CC[C@H](C)[C@H](N)C(=O)N[C@H](C(=O)N[C@@H](CC(C)C)C(=O)N[C@@H](CO)C(=O)N[C@@H](CC(C)C)C(=O)N[C@@H](CC(=O)O)C(=O)N[C@H](C(=O)N1CCC[C@H]1C(=O)N[C@H](C(=O)N[C@@H](CCCCN)C(=O)N[C@@H](CC(C)C)C(=O)N[C@@H](CCCCNC(=O)COCCOCCNC(=O)COCCOCCNC(=O)CC[C@H](NC(=O)CCCCCCCCCCCCCCCCC(=O)O)C(=O)O)C(=O)N[C@@H](CCC(N)=O)C(=O)N[C@H](C(=O)N[C@@H](CC(C)C)C(=O)N[C@@H](CC(C)C)C(=O)N[C@@H](CCCCN)C(=O)N[C@@H](CCC(N)=O)C(=O)N[C@@H](CCC(=O)O)C(=O)N[C@@H](CCCNC(=N)N)C(=O)N[C@@H](CCC(N)=O)C(=O)N[C@@H](CCCCN)C(=O)NC(C)(C)C(=O)N[C@@H](CCC(N)=O)C(=O)N[C@@H](CCCNC(=N)N)C(=O)N[C@@H](CCC(N)=O)C(=O)N[C@@H](CCCCN)C(=O)N[C@@H](C)C(=O)N[C@@H](CCC(=O)O)C(=O)N[C@@H](CCCCN)C(=O)N[C@@H](CC(N)=O)C(=O)N[C@@H](CCCCN)C(=O)N[C@@H](CCC(N)=O)C(=O)N[C@H](C(=O)N[C@@H](CC(C)C)C(=O)N[C@@H](C)C(=O)N[C@@H](CCC(N)=O)C(=O)N[C@H](C(N)=O)C(C)C)[C@@H](C)CC)[C@@H](C)CC)[C@@H](C)CC)C(C)C)C(C)C` [compound 22] (H-IVLSLDVPIKLK([AEEA-AEEA-γGlu-C18 diacid])QILLKQERQK[Aib]QRQKAEKNKQILAQV-NH2), the EC50 on human CRF2α receptor came out at 0.12 nM. Also, on CRF1R receptor, the EC50 was above 100 nM and the Emax came out at 1.2%.

Turning to `CCCCCCCCCCCCCCCC(=O)N[C@@H](CCC(=O)NCCCC[C@H](NC(=O)[C@H](CC(C)C)NC(=O)[C@H](CCCCN)NC(=O)[C@@H](NC(=O)[C@@H]1CCCN1C(=O)[C@H](NC(=O)[C@H](CC(=O)O)NC(=O)[C@H](CC(C)C)NC(=O)[C@H](CO)NC(=O)[C@H](CC(C)C)NC(=O)[C@@H](NC(=O)[C@@H](N)[C@@H](C)CC)C(C)C)C(C)C)[C@@H](C)O)C(=O)N[C@@H](CCCCN)C(=O)N[C@@H](CCCCN)C(=O)N[C@@H](CC(C)C)C(=O)N[C@@H](CC(C)C)C(=O)N[C@@H](CCCCN)C(=O)N[C@@H](CCC(N)=O)C(=O)N[C@@H](CCC(=O)O)C(=O)N[C@@H](CCCNC(=N)N)C(=O)N[C@@H](CCCCN)C(=O)N[C@@H](CCCNC(=N)N)C(=O)N[C@@H](CCCCN)C(=O)N[C@@H](CCC(=O)O)C(=O)N[C@@H](CCCNC(=N)N)C(=O)N[C@@H](CCC(=O)O)C(=O)N[C@@H](CCCCN)C(=O)N[C@@H](C)C(=O)N[C@@H](CCC(=O)O)C(=O)N[C@@H](CCCCN)C(=O)N[C@@H](CC(N)=O)C(=O)N[C@@H](C)C(=O)N[C@@H](CCCNC(=N)N)C(=O)N[C@H](C(=O)N[C@@H](CC(C)C)C(=O)N[C@@H](CCC(=O)O)C(=O)N[C@@H](CCCNC(=N)N)C(=O)N[C@H](C(N)=O)C(C)C)[C@@H](C)CC)C(=O)O` [compound 25] (H-IVLSLD[dV]PTKLK([γGlu-Palmitoyl])KKLLKQERKRKEREKAEKNARILERV-NH2), on human CRF2α receptor, the EC50 came out at 0.09 nM. Moreover, at CRF1R receptor, the EC50 is above 100 nM and the maximal response (Emax) came to 0.1%.

On to `CCCCCCCCCCCCCCCC(=O)N[C@@H](CCC(=O)NCCCC[C@H](NC(=O)[C@H](CC(C)C)NC(=O)[C@H](CCCCN)NC(=O)[C@@H](NC(=O)[C@@H]1CCCN1C(=O)[C@H](NC(=O)[C@H](CC(=O)O)NC(=O)[C@H](CC(C)C)NC(=O)[C@H](CO)NC(=O)[C@H](CC(C)C)NC(=O)[C@@H](NC(=O)[C@@H](N)[C@@H](C)CC)C(C)C)C(C)C)[C@@H](C)O)C(=O)N[C@@H](CCCCN)C(=O)N[C@@H](CCCCN)C(=O)N[C@@H](CC(C)C)C(=O)N[C@@H](CC(C)C)C(=O)N[C@@H](CCCCN)C(=O)N[C@@H](CCC(N)=O)C(=O)N[C@@H](CCC(=O)O)C(=O)N[C@@H](CCCNC(=N)N)C(=O)N[C@@H](CCCCN)C(=O)N[C@@H](CCCNC(=N)N)C(=O)N[C@@H](CCCCN)C(=O)N[C@@H](CCC(=O)O)C(=O)N[C@@H](CCCNC(=N)N)C(=O)N[C@@H](CCC(=O)O)C(=O)NC(C)(C)C(=O)N[C@@H](C)C(=O)N[C@@H](CCC(=O)O)C(=O)N[C@@H](CCCCN)C(=O)N[C@@H](CC(N)=O)C(=O)N[C@@H](C)C(=O)N[C@@H](CCCNC(=N)N)C(=O)N[C@H](C(=O)N[C@@H](CC(C)C)C(=O)N[C@@H](CCC(=O)O)C(=O)N[C@@H](CCCNC(=N)N)C(=O)N[C@H](C(N)=O)C(C)C)[C@@H](C)CC)C(=O)O` [compound 26] (H-IVLSLD[dV]PTKLK([γGlu-Palmitoyl])KKLLKQERKRKERE[Aib]AEKNARILERV-NH2; N-terminus assumed), for which the EC50 on human CRF2α receptor turned out to be 0.01 nM. Besides, at CRF1R receptor, the EC50 is above 100 nM and the Emax was 0.6%.

Broadly, the Emax is the maximal effect, on the per cent scale that the assay sets. As usually defined, the EC50 is the concentration at which the effect is half-maximal.
